For the assay, the system named is POMC. The assay is described as follows: Gene modulation in normal human epidermal melanocytes (NHEM), RT-qPCR PCR array of mRNA expression. Type of assay: cell-based. Conditions: Melanocyte, 72 h. On the procedure:
Normal human epidermal melanocytes were cultivated for 24 hours. […] Cells were cultivated for additional 72 hours. All experimental conditions were performed in triplicate.
At the end of the cultivation, the cells were harvested and washed with phosphate buffered saline (PBS) solution and immediately frozen at -80 °C. The expression of selected markers was analyzed using RT-qPCR method on mRNA extracted from cells layer for each treatment condition. The differential expression analysis was performed by PCR arrays of the screening format "mQPA H-Melanocyte-64", which focuses on 64 genes selected for their importance in pigmentation and melanocyte biology.
Total RNA was extracted from each sample using TRI-Reagent®. The amount and quality of the RNA was evaluated using a lab-on-a-chip Bioanalyzer (Agilent technologies). Potential contaminants traces of DNA were removed […] The incorporation of fluorescence in amplified DNA was measured continuously during the PCR cycles. […] The value selected for RE calculations is the "output point" (Ct) of the fluorescence curve. For a given marker, the highest is the cycle number; the lowest, is the mRNA quantity. The RE value is expressed in arbitrary units (AU) according to the equation: (((1)/(2)))^NC x 10^6 Where NC is the number of cycles. [formula]

Where two headings read alike, the source gives them in different places.

In the case of `Oc1ccc(C=Cc2cc(O)cc(O)c2)cc1` [Resveratrol, 3,4',5 trihydroxystilbene], the activation at 5 µg/mL runs as follows: (read-out: POMC expression ratio compared to control) 5%; (read-out: modulation of expression of the gene POMC when compared to untreated cells) 5%.

Source of the values: EP2522329A1, “Use of resveratrol and arbutin” (DSM IP Assets B.V., priority 2011, dated 2012).
